Biological target: mGluR5 receptor (Sus scrofa, UniProt I3LUI7)
Test: Affinity for the mGluR5 receptor: inhibition of 3[H]-MPEP binding in pig brain homogenate
Settings: 10 μM compound, 5 nM 3[H]-MPEP, read-out: mGluR5 receptor inhibition of ^3[H]-MPEP binding [10 μM] in % at a concentration of the example compounds of 10 μM
How it was run: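 Test compounds were screened at 10 μM for displacement of 5 nM [3H]-MPEP from pig brain homogenate (450 μg protein, pH 8.0 Hepes buffer) over 60 min at room temperature. After filtration, scintillation counting gave the read-out. 10 μM unlabelled MPEP set nonspecific binding.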

mGluR5 receptor, sequence (I3LUI7 19-1212): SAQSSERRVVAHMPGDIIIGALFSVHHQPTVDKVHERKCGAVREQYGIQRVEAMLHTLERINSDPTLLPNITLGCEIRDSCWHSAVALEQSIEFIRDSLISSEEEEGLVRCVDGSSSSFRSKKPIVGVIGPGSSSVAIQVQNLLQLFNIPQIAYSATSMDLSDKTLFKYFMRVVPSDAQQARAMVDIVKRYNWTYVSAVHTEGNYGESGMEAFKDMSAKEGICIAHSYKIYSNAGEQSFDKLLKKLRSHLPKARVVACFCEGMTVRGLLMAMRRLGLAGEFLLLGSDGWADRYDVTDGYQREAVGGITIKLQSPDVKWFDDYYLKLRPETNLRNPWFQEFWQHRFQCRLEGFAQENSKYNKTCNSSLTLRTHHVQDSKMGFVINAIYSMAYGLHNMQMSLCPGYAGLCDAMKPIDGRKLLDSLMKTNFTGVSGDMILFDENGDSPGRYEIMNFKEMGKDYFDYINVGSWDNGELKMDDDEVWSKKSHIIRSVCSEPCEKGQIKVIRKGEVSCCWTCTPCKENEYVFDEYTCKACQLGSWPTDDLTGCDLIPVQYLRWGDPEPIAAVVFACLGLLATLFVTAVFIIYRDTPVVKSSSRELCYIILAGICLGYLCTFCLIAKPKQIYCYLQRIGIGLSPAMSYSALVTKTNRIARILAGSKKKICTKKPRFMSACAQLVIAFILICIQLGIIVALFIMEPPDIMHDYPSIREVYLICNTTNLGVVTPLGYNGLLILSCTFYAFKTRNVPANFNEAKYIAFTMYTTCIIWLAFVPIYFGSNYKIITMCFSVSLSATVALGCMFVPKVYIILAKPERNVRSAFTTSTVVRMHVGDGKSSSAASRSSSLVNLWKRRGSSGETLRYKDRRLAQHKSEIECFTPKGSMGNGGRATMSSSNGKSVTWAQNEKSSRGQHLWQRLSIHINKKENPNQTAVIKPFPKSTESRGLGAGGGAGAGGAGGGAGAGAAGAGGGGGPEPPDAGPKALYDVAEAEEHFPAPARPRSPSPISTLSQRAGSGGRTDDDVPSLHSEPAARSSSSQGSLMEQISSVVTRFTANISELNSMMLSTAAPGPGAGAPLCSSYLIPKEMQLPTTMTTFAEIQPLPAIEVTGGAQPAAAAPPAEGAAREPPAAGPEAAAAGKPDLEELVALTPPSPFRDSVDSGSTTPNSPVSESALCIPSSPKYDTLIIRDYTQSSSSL

SMILES	inhibition at 10 µM [%]
Cc1ccc2nc(-c3ccc(C#Cc4ccccn4)o3)c(NC3CCCC3)n2c1 [Example 272, N-cyclopentyl-6-methyl-2-(5-(pyridin-2-ylethynyl)furan-2-yl)imidazo[1,2-a]pyridin-3-amine]	72
Cc1ccc2nc(-c3cccc(C#Cc4cccc(C)n4)c3)c(NC3CCCCC3)n2c1 [Example 273, N-cyclohexyl-6-methyl-2-(3-((6-methylpyridin-2-yl)ethynyl)phenyl)imidazo[1,2-a]pyridin-3-amine]	84
Cc1ccn2c(NC3CCCCC3)c(-c3ccc(C#Cc4ccccn4)s3)nc2c1 [Example 274, N-cyclohexyl-7-methyl-2-(5-(pyridin-2-ylethynyl)thiophen-2-yl)imidazo[1,2-a]pyridin-3-amine]	85
Cc1ccn2c(NC(C)(C)CC(C)(C)C)c(-c3ccc(C#Cc4ccccn4)s3)nc2c1 [Example 275, 7-methyl-2-(5-(pyridin-2-ylethynyl)thiophen-2-yl)-N-(2,4,4-trimethylpentan-2-yl)imidazo[1,2-a]pyridin-3-amine]	85
Cc1ccn2c(NC(C)(C)C)c(-c3cccc(C#Cc4ccccn4)c3)nc2c1 [Example 276, N-tert-butyl-7-methyl-2-(3-(pyridin-2-ylethynyl)phenyl)imidazo[1,2-a]pyridin-3-amine]	93
Cc1ccn2c(Nc3ccc(F)cc3)c(-c3cccc(C#Cc4ccccn4)c3)nc2c1 [Example 277, N-(4-fluorophenyl)-7-methyl-2-(3-(pyridin-2-ylethynyl)phenyl)imidazo[1,2-a]pyridin-3-amine]	95
Cc1ccn2c(NC(C)(C)C)c(-c3ccc(C#Cc4ccccn4)cc3)nc2c1 [Example 278, N-tert-butyl-7-methyl-2-(4-(pyridin-2-ylethynyl)phenyl)imidazo[1,2-a]pyridin-3-amine]	93
Cc1ccn2c(Nc3ccc(F)cc3)c(-c3ccc(C#Cc4ccccn4)o3)nc2c1 [Example 279, N-(4-fluorophenyl)-7-methyl-2-(5-(pyridin-2-ylethynyl)furan-2-yl)imidazo[1,2-a]pyridin-3-amine]	67
Cc1cccn2c(NC3CCCCC3)c(-c3ccc(C#Cc4ccccc4)nc3)nc12 [Example 280, N-cyclohexyl-8-methyl-2-(6-(phenylethynyl)pyridin-3-yl)imidazo[1,2-a]pyridin-3-amine]	31
C(#Cc1ccc(-c2nc3ccccn3c2NC2CCCC2)cn1)c1ccccc1 [Example 281, N-cyclopentyl-2-(6-(phenylethynyl)pyridin-3-yl)imidazo[1,2-a]pyridin-3-amine]	83
CC(C)(C)Nc1c(-c2ccc(C#Cc3ccccc3)nc2)nc2ccccn12 [Example 282, N-tert-butyl-2-(6-(phenylethynyl)pyridin-3-yl)imidazo[1,2-a]pyridin-3-amine]	72
C(#Cc1ccc(-c2nc3ccccn3c2NC2CCCCC2)cn1)c1ccccc1 [Example 283, N-cyclohexyl-2-(6-(phenylethynyl)pyridin-3-yl)imidazo[1,2-a]pyridin-3-amine]	82
CC(C)(C)CC(C)(C)Nc1c(-c2ccc(C#Cc3ccccc3)nc2)nc2ccccn12 [Example 284, 2-(6-(phenylethynyl)pyridin-3-yl)-N-(2,4,4-trimethylpentan-2-yl)imidazo[1,2-a]pyridin-3-amine]	68
CC(C)(C)Nc1c(-c2ccc(C#Cc3ccccn3)o2)nc2ccccn12 [Example 285, N-tert-butyl-2-(5-(pyridin-2-ylethynyl)furan-2-yl)imidazo[1,2-a]pyridin-3-amine]	88
C(#Cc1ccc(-c2nc3ccccn3c2NC2CCCCC2)o1)c1ccccn1 [Example 286, N-cyclohexyl-2-(5-(pyridin-2-ylethynyl)furan-2-yl)imidazo[1,2-a]pyridin-3-amine]	72
Fc1ccc(Nc2c(-c3ccc(C#Cc4ccccn4)o3)nc3ccccn23)cc1 [Example 287, N-(4-fluorophenyl)-2-(5-(pyridin-2-ylethynyl)furan-2-yl)imidazo[1,2-a]pyridin-3-amine]	30
Cc1cccc(C#Cc2cccc(-c3nc4ccccn4c3NC3CCCCC3)c2)n1 [Example 288, N-cyclohexyl-2-(3-((6-methylpyridin-2-yl)ethynyl)phenyl)imidazo[1,2-a]pyridin-3-amine]	89
Cc1cccc(C#Cc2cccc(-c3nc4ccccn4c3NC(C)(C)CC(C)(C)C)c2)n1 [Example 289, 2-(3-((6-methylpyridin-2-yl)ethynyl)phenyl)-N-(2,4,4-trimethylpentan-2-yl)imidazo[1,2-a]pyridin-3-amine]	51
Cc1cccc(C#Cc2cccc(-c3nc4cccc(C)n4c3NC(C)(C)C)c2)n1 [Example 290, N-tert-butyl-5-methyl-2-(3-((6-methylpyridin-2-yl)ethynyl)phenyl)imidazo[1,2-a]pyridin-3-amine]	88
Cc1cccc(C#Cc2cccc(-c3nc4cccc(C)n4c3NC(C)(C)CC(C)(C)C)c2)n1 [Example 291, 5-methyl-2-(3-((6-methylpyridin-2-yl)ethynyl)phenyl)-N-(2,4,4-trimethylpentan-2-yl)imidazo[1,2-a]pyridin-3-amine]	92
Cc1cc(C)n2c(NC3CCCCC3)c(-c3cccc(C#Cc4ccccn4)c3)nc2n1 [Example 292, N-cyclohexyl-5,7-dimethyl-2-(3-(pyridin-2-ylethynyl)phenyl)imidazo[1,2-a]pyrimidin-3-amine]	88

Other lines, results leading:

inhibition at 10 µM [%]	SMILES
70	Cc1cc(C)n2c(NC3CCCCC3)c(-c3ccc(C#Cc4ccccc4)nc3C)nc2n1 [Example 293, N-cyclohexyl-5,7-dimethyl-2-(2-methyl-6-(phenylethynyl)pyridin-3-yl)imidazo[1,2-a]pyrimidin-3-amine]
79	Cc1cc(C)n2c(NC3CCCC3)c(-c3ccc(C#Cc4ccccn4)o3)nc2n1 [Example 294, N-cyclopentyl-5,7-dimethyl-2-(5-(pyridin-2-ylethynyl)furan-2-yl)imidazo[1,2-a]pyrimidin-3-amine]
84	Cc1cc(C)n2c(NC(C)(C)C)c(-c3ccc(C#Cc4ccccn4)o3)nc2n1 [Example 295, N-tert-butyl-5,7-dimethyl-2-(5-(pyridin-2-ylethynyl)furan-2-yl)imidazo[1,2-a]pyrimidin-3-amine]
85	Cc1cccn2c(Nc3ccc(F)cc3)c(-c3cccc(C#Cc4ccccn4)c3)nc12 [Example 296, N-(4-fluorophenyl)-8-methyl-2-(3-(pyridin-2-ylethynyl)phenyl)imidazo[1,2-a]pyridin-3-amine]
80	Cc1cccn2c(NC3CCCCC3)c(-c3ccc(C#Cc4ccccn4)cc3)nc12 [Example 297, N-cyclohexyl-8-methyl-2-(4-(pyridin-2-ylethynyl)phenyl)imidazo[1,2-a]pyridin-3-amine]
95	CCc1ccn2c(NC3CCCCC3)c(-c3ccc(C#Cc4ccccn4)s3)nc2c1 [Example 298, N-cyclohexyl-7-ethyl-2-(5-(pyridin-2-ylethynyl)thiophen-2-yl)imidazo[1,2-a]pyridin-3-amine]
86	CCc1ccn2c(NC(C)(C)CC(C)(C)C)c(-c3ccc(C#Cc4ccccn4)s3)nc2c1 [Example 299, 7-ethyl-2-(5-(pyridin-2-ylethynyl)thiophen-2-yl)-N-(2,4,4-trimethylpentan-2-yl)imidazo[1,2-a]pyridin-3-amine]
50	CCc1ccn2c(NC3CCCCC3)c(-c3cccc(C#Cc4ccccn4)c3)nc2c1 [Example 300, N-cyclohexyl-7-ethyl-2-(3-(pyridin-2-ylethynyl)phenyl)imidazo[1,2-a]pyridin-3-amine]
78	CCc1ccn2c(NC3CCCC3)c(-c3ccc(C#Cc4ccccn4)cc3)nc2c1 [Example 301, N-cyclopentyl-7-ethyl-2-(4-(pyridin-2-ylethynyl)phenyl)imidazo[1,2-a]pyridin-3-amine]
55	CCc1ccn2c(NC3CCCC3)c(-c3ccc(C#Cc4ccccc4)nc3)nc2c1 [Example 302, N-cyclopentyl-7-ethyl-2-(6-(phenylethynyl)pyridin-3-yl)imidazo[1,2-a]pyridin-3-amine]
67	CCc1ccn2c(NC(C)(C)C)c(-c3ccc(C#Cc4ccccc4)nc3)nc2c1 [Example 303, N-tert-butyl-7-ethyl-2-(6-(phenylethynyl)pyridin-3-yl)imidazo[1,2-a]pyridin-3-amine]
94	CCc1ccn2c(NC(C)(C)C)c(-c3ccc(C#Cc4ccccn4)o3)nc2c1 [Example 304, N-tert-butyl-7-ethyl-2-(5-(pyridin-2-ylethynyl)furan-2-yl)imidazo[1,2-a]pyridin-3-amine]
75	CC(C)c1ccn2c(NC(C)(C)CC(C)(C)C)c(-c3ccc(C#Cc4ccccn4)s3)nc2c1 [Example 305, 7-isopropyl-2-(5-(pyridin-2-ylethynyl)thiophen-2-yl)-N-(2,4,4-trimethylpentan-2-yl)imidazo[1,2-a]pyridin-3-amine]
76	CC(C)c1ccn2c(NC(C)(C)C)c(-c3cccc(C#Cc4ccccn4)c3)nc2c1 [Example 306, N-tert-butyl-7-isopropyl-2-(3-(pyridin-2-ylethynyl)phenyl)imidazo[1,2-a]pyridin-3-amine]
88	CC(C)c1ccn2c(NC(C)(C)C)c(-c3ccc(C#Cc4ccccn4)cc3)nc2c1 [Example 307, N-tert-butyl-7-isopropyl-2-(4-(pyridin-2-ylethynyl)phenyl)imidazo[1,2-a]pyridin-3-amine]
70	CC(C)c1ccn2c(NC3CCCCC3)c(-c3ccc(C#Cc4ccccn4)o3)nc2c1 [Example 308, N-cyclohexyl-7-isopropyl-2-(5-(pyridin-2-ylethynyl)furan-2-yl)imidazo[1,2-a]pyridin-3-amine]

From patent US7420056B2, “Substituted bicyclic imidazo-3-ylamine compounds” (Gruenenthal GmbH, priority 2004, dated 2008)
